The values that follow come from PubChem BioAssay (NCI).

The structures appear in SMILES notation. “And” between values parts separate entries of the source, which are not always exact repeats. Identical values can stand only once.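 Grown in 96-well plates, cells were treated for 48 hours with each compound at five concentrations. Insufficient inhibition: endpoint recorded as highest concentration tested. GI50 marks 50% less growth. TGI is the concentration that stops growth completely.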

Test systems include MDA-MB-231 breast; HCT-116 colon; U251 CNS; MDA-N; UO-31 renal; NCI-H460 lung; PC-3 prostate; IGROV1 ovarian; UACC-62 melanoma; OVCAR-8 ovarian.
Holding throughout (assay): DTP human tumour cell line panel, 48 h

One may read the TGI as the concentration giving total growth inhibition. Low readings indicate more potent growth arrest, high ones less potent growth arrest. The GI50 is the concentration giving 50% growth inhibition.

For `COc1ccc2c(c1)NC1(CCN(CCCC(=O)c3ccc(F)cc3)CC1)N=N2`, the total growth inhibition concentration (TGI) in the test with MDA-MB-231 breast stood at 45.7 µM; in the test with HCT-116 colon, 36 µM; in the test with U251 CNS, 48.6 µM; in the test on MDA-N, 31.6 µM; with UO-31 renal it was 57.8 µM; in the test on NCI-H460 lung, 93.5 µM. The values for the TGI in the test on PC-3 prostate, with IGROV1 ovarian and with UACC-62 melanoma were greater than 100 µM, 64 µM and 41.6 µM, respectively.

With `COC1=C(C)C(=O)C2=C(C1=O)C1C3CC4=C(C(=O)C(OC)=C(C)C4=O)C(CNC(=O)C(C)O)N3C(C#N)C(C2)N1C` (stereo not given), the concentration for total growth inhibition (TGI) is 0.0178 µM in the test on MDA-MB-231 breast; 2.18 µM in the test on HCT-116 colon; less than 0.0107 µM in the test on MDA-N; 0.731 µM in the test on UO-31 renal; 0.179 µM in the test on NCI-H460 lung; 1.32 µM in the test on OVCAR-8 ovarian. The TGI with PC-3 prostate was 1.74 µM; with IGROV1 ovarian, 1.07 µM; in the test with UACC-62 melanoma, less than 0.01 µM.

For `O=C(O)c1c2c(cc3c1CC1(Cc4cc5c(cc4C1=O)CCC5)C3)CCC2` (stereo not given), the total growth inhibition concentration (TGI) in the test with MDA-MB-231 breast, in the test with HCT-116 colon, with U251 CNS, with MDA-N, with UO-31 renal and in the test with NCI-H460 lung was greater than 100 µM in each case. Moreover, the TGI in the test with OVCAR-8 ovarian, with PC-3 prostate, in the test with IGROV1 ovarian and in the test with UACC-62 melanoma was greater than 100 µM in each case.

Turning to `O=[N+]([O-])c1cc(F)ccc1S(=O)(=O)c1ccccc1`, the TGI in the test with MDA-MB-231 breast, in the test on HCT-116 colon, with U251 CNS, with MDA-N, with NCI-H460 lung and with OVCAR-8 ovarian was greater than 10 µM each time. The TGI with PC-3 prostate, in the test on IGROV1 ovarian and in the test with UACC-62 melanoma was greater than 10 µM each time.

`COC1=C(Cl)C(=O)c2c(O)ccc(O)c2C1=O`: the TGI in the test on MDA-MB-231 breast is 3.19 µM; with HCT-116 colon, 1.34 µM; in the test on U251 CNS, 11.9 µM; in the test on MDA-N, 4.8 µM; with UO-31 renal, 3.71 µM; in the test on NCI-H460 lung it was 24.4 µM. Further, the TGI in the test with OVCAR-8 ovarian is 4.78 µM; in the test on PC-3 prostate, 9.17 µM; with IGROV1 ovarian, 3.72 µM; in the test on UACC-62 melanoma it was 4.12 µM.

Turning to `CCOC1NC(=O)Oc2cc3ccccc3cc21` (stereo not given), the TGI with MDA-MB-231 breast, in the test on HCT-116 colon, in the test on U251 CNS, in the test with MDA-N, in the test with UO-31 renal and in the test on NCI-H460 lung was greater than 100 µM each time. The concentration for total growth inhibition (TGI) in the test with OVCAR-8 ovarian, with PC-3 prostate, in the test on IGROV1 ovarian and in the test with UACC-62 melanoma was greater than 100 µM in each case.

On to `CC(C)(C)NC(=O)/C(=C\Sc1ccccc1)c1ccccc1`, for which the concentration for total growth inhibition (TGI) in the test on MDA-MB-231 breast, in the test with HCT-116 colon, in the test on U251 CNS, in the test with MDA-N, in the test with UO-31 renal and with NCI-H460 lung was greater than 100 µM throughout. Besides, the TGI in the test with OVCAR-8 ovarian, in the test on PC-3 prostate, with IGROV1 ovarian and in the test with UACC-62 melanoma was greater than 100 µM in each case.

As for `COC(=O)CCNc1c2ccccc2nc2cccc([N+](=O)[O-])c12`, the GI50 is 0.394 µM in the test on MDA-MB-231 breast, 0.00139 µM with UO-31 renal, 0.0138 µM with NCI-H460 lung and 0.00136 µM with UACC-62 melanoma. The TGI in the test with MDA-MB-231 breast is 1.44 µM; in the test on HCT-116 colon, 1.11 µM; in the test with U251 CNS it was 0.127 µM and 0.0318 µM; in the test with MDA-N it was 0.00136 µM; in the test with UO-31 renal, 0.00492 µM and 0.0113 µM; with NCI-H460 lung, 0.234 µM. The TGI in the test with PC-3 prostate is 0.126 µM; in the test on IGROV1 ovarian it was 0.0261 µM and 0.0901 µM; in the test with UACC-62 melanoma, 0.00428 µM and 0.0364 µM.

Regarding `COC(=O)c1ccccc1/C=C1\Cc2ccc3c(c2C1=O)CCCC3`, the TGI in the test with MDA-MB-231 breast, in the test on HCT-116 colon, in the test on U251 CNS, in the test on MDA-N, in the test with UO-31 renal and in the test with NCI-H460 lung was greater than 100 µM each time. Moreover, the TGI in the test on OVCAR-8 ovarian, with PC-3 prostate, with IGROV1 ovarian and in the test with UACC-62 melanoma was greater than 100 µM each time.

On to `CCCCc1ccc(Nc2nc(Cl)c3ccn(C4CC(Oc5ccc(C)cc5)C(COc5ccc(C)cc5)O4)c3n2)cc1` (stereo not given), for which the TGI is greater than 46.4 µM with MDA-MB-231 breast; greater than 46.4 µM in the test on HCT-116 colon; greater than 46.4 µM in the test with U251 CNS; greater than 46.4 µM with MDA-N; 31.2 µM in the test with UO-31 renal; greater than 31.6 µM in the test with NCI-H460 lung. For the same compound, the TGI in the test on OVCAR-8 ovarian is greater than 46.4 µM; with PC-3 prostate, greater than 100 µM; in the test with IGROV1 ovarian it was 29.5 µM; with UACC-62 melanoma, 30.6 µM.

Consider `Cc1nc2c(cc1OCc1ccccc1)C(=O)C1=C(C2=O)C2OC(=O)CC2OC1(C)C` (stereo not given), for which the TGI came out at 1.51 µM in the test on MDA-MB-231 breast; 1.04 µM in the test on HCT-116 colon; 2.14 µM in the test with U251 CNS; 1.75 µM with MDA-N; 3.24 µM in the test on UO-31 renal; 2.9 µM in the test on NCI-H460 lung. In addition, the TGI in the test with OVCAR-8 ovarian came to 12.3 µM; with PC-3 prostate, 1.8 µM; with IGROV1 ovarian, 1.31 µM; in the test on UACC-62 melanoma it was 0.322 µM.

As for `COC(=O)C(Cc1c[nH]c2ccccc12)NP(=O)(O)OCC1OC(n2cc(Br)c(=O)[nH]c2=O)CC1O` (stereo not given), the TGI with MDA-MB-231 breast, in the test on HCT-116 colon, with U251 CNS, with MDA-N, in the test with UO-31 renal and in the test on NCI-H460 lung was greater than 100 µM in each case. The TGI in the test with OVCAR-8 ovarian, in the test with PC-3 prostate, in the test on IGROV1 ovarian and in the test with UACC-62 melanoma was greater than 100 µM in each case.

Take `O=C(O)/C(=C\c1ccc(O)cc1)c1cccc2ccccc12`: the total growth inhibition concentration (TGI) with MDA-MB-231 breast, with HCT-116 colon, with U251 CNS, in the test on MDA-N, with UO-31 renal and with NCI-H460 lung was greater than 100 µM in each case. In addition, the total growth inhibition concentration (TGI) in the test on OVCAR-8 ovarian, in the test with PC-3 prostate, with IGROV1 ovarian and in the test with UACC-62 melanoma was greater than 100 µM each time.
